Reference: ChEMBL document CHEMBL1140428, “Human P2Y(6) receptor: molecular modeling leads to the rational design of a novel agonist based on a unique conformational preference” (J Med Chem, 2005)

Target: P2Y purinoceptor 6 (Homo sapiens, UniProt Q15077)
Experiment: Stimulation of phospholipase C in 1321N1 astrocytoma cells transfected with human P2Y6 receptor; call rule not given here
Assay type: cell-based

P2Y purinoceptor 6, sequence (Q15077 whole entry): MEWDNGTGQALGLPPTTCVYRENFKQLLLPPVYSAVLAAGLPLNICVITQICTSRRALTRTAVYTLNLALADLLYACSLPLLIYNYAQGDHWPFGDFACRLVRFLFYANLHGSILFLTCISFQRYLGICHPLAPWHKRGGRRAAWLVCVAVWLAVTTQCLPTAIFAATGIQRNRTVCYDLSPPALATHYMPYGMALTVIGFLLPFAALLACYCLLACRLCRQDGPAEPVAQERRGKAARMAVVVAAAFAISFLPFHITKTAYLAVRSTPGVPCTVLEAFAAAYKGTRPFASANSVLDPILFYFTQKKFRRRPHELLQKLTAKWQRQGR

O=c1ccn([C@@]23C[C@H](O)[C@@H](COP(=O)(O)OP(=O)(O)O)[C@@H]2C3)c(=O)[nH]1
EC50 (read-out: EC50): 230 nM

O=c1ccn([C@H]2[C@H](O)[C@H](O)[C@@]3(COP(=O)(O)OP(=O)(O)O)C[C@H]23)c(=O)[nH]1
EC50: Not Active

O=c1ccn([C@H]2C[C@H](O)[C@@H](COP(=O)(O)OP(=O)(O)O)O2)c(=O)[nH]1
EC50 (read-out: EC50): 1720 nM

O=c1ccn([C@@H]2O[C@H](COP(=O)(O)OP(=O)(O)O)[C@@H](O)[C@H]2O)c(=O)[nH]1 [URIDINE_DIPHOSPHATE]
EC50 (read-out: EC50): 86 nM
